This is an account of results in US7776882B2, “2-amino-3,4-dihydro-quinoline derivatives useful as inhibitors of β-secretase (BACE)” (priority 2006, dated 2010).

Holding throughout (assay type): biochemical
Assay [1] addresses T1, β-secretase (BACE) (Homo sapiens, UniProt P56817).
T1 construct: purchased Panvera
As to the kind of experiment: In Vitro BACE FS1 % Inhibition Assay (Example 10). The settings on record: FS1 substrate, values below about 25% (including negative) within noise; for % Inhibition (Example 10) @ 0.3 μM / inhibition at 0.3 µM: 0.3 μM compound; for inhibition at 1 µM / % Inhibition (Example 10) @ 1 μM: 1 μM compound; for inhibition at 3 µM / % Inhibition (Example 10) @ 3 μM: 3 μM compound. How it is done:
(§1) The following assay buffers were prepared and used in this assay: (1) enzyme assay buffer (0.05 M sodium acetate, pH5, 0.1% PEG8000 (w/v)), (2) substrate assay buffer (0.05 M sodium acetate, pH5), and (3) compound vehicle (30% DMSO in 50 mM HEPES, pH 7.4).
(§2) The FS1-substrate stock solution was prepared in DMSO as a 10 mg/mL solution. The FS1-substrate working solution was prepared by diluting the 10 mg/mL stock solution with substrate assay buffer to a final concentration of 300 μg/mL. The β-secretase (BACE) working solution was prepared by diluting a 0.83 mg/mL BACE stock solution with enzyme assay buffer to a final concentration of 4 μg/mL.
Test compounds were dissolved in DMSO to 10 mM. Compounds were further diluted in vehicle to various concentrations in the range of 405 μM to 4.05 μM (13.5×final compound concentration in screening plate).
The screening procedure for this assay was as follows: 15 μL of BACE working solution was pipetted into each well of a 96-well plate. To each well was then pipetted 2 μL of test compound at the selected concentration. Test compound and BACE were then mixed with a pipettor and incubated for 20 min at room temperature. To each well was then added 10 μL of the FS1 substrate working solution. The plates were then incubated for 1 hour at room temperature. The fluorescence for each well was then measured on an LJL analyst (Ex 360 nm/Em 530 nm).
The procedure for the blank (negative control) was as follows. 15 μL of assay buffer was pipetted into each well to be used as a blank control. To each well was then added 2 μL of vehicle and 10 μL of FS1-substrate working solution. The plates were then incubated for 1 hour at room temperature. The fluorescence was measured on an LJL analyst (Ex 360 nm/Em 530 nm).
The procedure for the positive control was as follows: 15 μL of BACE working solution was pipetted into each well to be used as a positive control. To each well was then pipetted 2 μL of vehicle. Vehicle and BACE were then mixed with a pipettor and incubated for 20 min at room temperature. To each well was then added 10 μL of the FS1 substrate working solution. The plates were then incubated for 1 hour at room temperature. The fluorescence (Fl) was then measured on an LJL analyst (Ex 360 nm/Em 530 nm).
For test compounds, % inhibition was determined at each concentration as follows: […]

Assay [2] deals with T2, human BACE-1 (Homo sapiens, UniProt P56817).
T2 construct: purchased CEREP (contract assay) 761-B
T2 sequence (P56817 46-501): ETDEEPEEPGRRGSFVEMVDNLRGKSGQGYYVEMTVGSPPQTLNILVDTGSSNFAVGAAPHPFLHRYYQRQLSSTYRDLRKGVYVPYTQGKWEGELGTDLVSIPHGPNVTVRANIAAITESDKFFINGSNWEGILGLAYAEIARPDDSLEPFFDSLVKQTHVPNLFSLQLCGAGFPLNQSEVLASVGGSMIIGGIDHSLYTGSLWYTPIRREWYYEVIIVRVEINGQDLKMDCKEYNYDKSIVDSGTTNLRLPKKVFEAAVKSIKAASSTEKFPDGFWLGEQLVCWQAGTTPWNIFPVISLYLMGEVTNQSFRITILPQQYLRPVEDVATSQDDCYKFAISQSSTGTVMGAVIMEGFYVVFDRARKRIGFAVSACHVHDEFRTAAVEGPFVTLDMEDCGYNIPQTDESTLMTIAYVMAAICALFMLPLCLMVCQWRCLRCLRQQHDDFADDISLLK
As to the kind of experiment: In Vitro BACE Assay run by CEREP (Example 14). The conditions noted are these: recombinant enzyme, 60 min at 37° C., pH 4.5; for inhibition at 1 µM / % Inhibition 1 μM: 1 μM compound; for % Inhibition 0.3 μM / inhibition at 0.3 µM: 0.3 μM compound. The method, then:
This assay was run by CEREP (Catalog Ref. 761-B, Referred to SOP No. 1C131; ERMOLIEFF, J., LOY, J. A., KOELSCH, G. and TANG, J., Proteolytic activation of recombinant pro-memapsin 2 (pro-BACE) studied with new fluorogenic substrates, Biochemistry, (2000) Vol. 39, p. 12450).
More specifically the assay, run at 50 μL in a 96 well plate, evaluated the effect of test compound on the activity of the human BACE-1 quantified by measuring the formation of Mca-S-E-V-N-L-NH2 from Mca-S-E-V-N-L-D-A-E-F-R-K(Dnp)-R-R-NH2, using a recombinant enzyme.
The test compound, reference compound or water (control) was added to a buffer containing 0.09 M sodium acetate (pH 4.5) and 0.25 μg BACE-1. Compound interference with the fluorimetric detection method due to autofluorescence was then checked by measurements at the wavelengths defined to evaluate the enzyme activity. Thereafter, the reaction was initiated by adding 7.5 μM of the substrate Mca-S-E-V-N-L-D-A-E-F-R-K(Dnp)-R-R-NH2 and the mixture was incubated for 60 min at 37° C. For control basal measurement, the substrate was omitted from the reaction mixture. Immediately after the incubation, the fluorescence intensity emitted by the reaction product Mca-S-E-V-N-L-NH2 was measured at λex=320 nm and λem=405 nm using a microplate reader (Ultra, Tecan). The standard inhibitory reference compound was OM99-2, which was tested in each experiment at several concentrations to obtain an inhibition curve from which its IC50 value was calculated.

The target of assay [3] is T1, β-secretase (BACE). Put plainly: In Vitro BACE Assay, Ki (Example 11). The conditions noted are these: FS1 substrate 50 μM, Km 24 μM. How it is done:
The following reagents were used in this assay: sodium acetate, PEG8000 (Sigma), DMSO, HEPES, FS1 substrate [R(AedensE)[…]-(DabcylK)R], β-secretase (BACE) (Panvera), and 96-well plate (HE microplate, Molecular Devices).
as §1, §2
Test compounds were dissolved in DMSO at 10 mM.
The procedure for this assay was as follows: 15 μL of BACE working solution was pipetted into each well of a 96-well plate. To each well was then pipetted 2 μL of test compound at the selected concentration. Test compound and BACE were then mixed with a pipettor and incubated for 20 min at room temperature. To each well was then added 10 μL of the FS1 substrate working solution. The fluorescence for each well was then measured on a Polarstar fluorometer (Ex 390 nm/Em 520 nm) for 20 min at room temperature, reading fluorescence at 1 min intervals.
The procedure for the positive control was as follows: 15 μL of BACE working solution was pipetted into each well to be used as a positive control. To each well was then pipetted 2 μL of vehicle. Vehicle and BACE were then mixed with a pipettor and incubated for 20 min at room temperature. To each well was then added 10 μL of the FS1 substrate working solution. The fluorescence was then measured on a Polarstar fluorometer (Ex 390 nm/Em 520 nm) for 20 min at room temperature, reading fluorescence at 1 min intervals.
For test compounds, Ki inhibition was determined as follows: For each compound concentration and positive control, rate of cleavage of substrate (Vi, where i=compound concentration in μM) was determined as Δ Fluorescence/Δ time (min). Cleavage rates (Vi) were plotted as a function of inhibitor concentration in μM [I]. The Ki was then determined by fitting the following equation to the graph of [I] vs Vi Y=aVmax/(50+24*(1+X/Ki)),

Values joined by “and” are separate entries in the source; they are usually repeats but may differ in a detail not shown here. Identical values can stand only once. Like-named read-outs stand apart in the source and are kept apart here.

T1 sequence (P56817 46-501): as above

Usually inhibition stands for the change of the read-out against control, counted positive when it falls. The IC50 is the midpoint of a concentration-inhibition curve. One may read the Ki as the equilibrium dissociation constant of an inhibitor or competing ligand from its target. With `CN(C(=O)CCC(c1cc2cc(Oc3ccccc3)ccc2nc1N)C1CCOCC1)C1CCCCC1` (stereo not drawn) [compound 23], the “% Inhibition (Example 10) @ 0.3 μM” value in assay [1] (0.3 µM) was 34% and 64%. In assay [1], the inhibition at 1 µM was 88% and the inhibition at 3 µM was 127%. For the same compound, in assay [1] (1 µM), the “% Inhibition (Example 10) @ 1 μM” value came to 93%. In addition, in assay [1] (3 µM), the “% Inhibition (Example 10) @ 3 μM” value is 125%. In addition, in assay [2], the inhibition at 1 µM stood at 78% and the IC50 was 420 nM. For the same compound, in assay [3] (Ki (μM) (Example 11)), the Ki was 0.12 µM and 0.31 µM.

`CC1CCCC(NC(=O)CCc2cc3cc(Oc4ccccc4)ccc3nc2N)C1` (stereo not drawn) [compound 3]: in assay [1], the inhibition at 0.3 µM amounted to 58%, the inhibition at 1 µM turned out to be 89% and the inhibition at 3 µM came to 115%. In assay [3] (Ki (μM) (Example 11)), the Ki worked out at 0.49 µM.

For the compound `Nc1nc2ccc(Oc3ccccc3)cc2cc1CCC(=O)NC12CC3CC(CC(C3)C1)C2` [compound 2], in assay [1], the “% Inhibition (Example 10) @ 0.3 μM” value is reported as 45%, the “% Inhibition (Example 10) @ 1 μM” value was found to be 78% and the “% Inhibition (Example 10) @ 3 μM” value is on record as 107%. Moreover, in assay [3] (read-out: Ki (μM) (Example 11)), the Ki came out at 0.23 µM.

`Nc1nc2ccc(Oc3ccccc3)cc2cc1C(CCC(=O)NC12CC3CC(CC(C3)C1)C2)C1CCCCC1` (stereo not drawn) [compound 15]: in assay [1], the “% Inhibition (Example 10) @ 0.3 μM” value is given as 43%, the “% Inhibition (Example 10) @ 1 μM” value stood at 58% and the “% Inhibition (Example 10) @ 3 μM” value amounted to 78%. Moreover, the Ki in assay [3] (read-out: Ki (μM) (Example 11)) was 0.28 µM.

`CN(C(=O)CC[C@H](c1cc2cc(Oc3ccccc3)ccc2nc1N)C1CCOCC1)C1CCCCC1` [compound 25]: in assay [1], the inhibition at 0.3 µM was 83%, the inhibition at 1 µM amounted to 114% and the inhibition at 3 µM worked out at 126%. In addition, affinity in assay [3] (Ki (μM) (Example 11)) was put at a Ki of 0.16 µM.

Consider `CC(C)=CCCC(C)=CCNC(=O)CCc1cc2cc(Oc3ccccc3)ccc2nc1N` [compound 13], for which, in assay [1], the inhibition at 0.3 µM stood at 2%, the inhibition at 1 µM is 42% and the inhibition at 3 µM turned out to be 88%. The compound further registered a Ki in assay [3] (Ki (μM) (Example 11)) of 0.64 µM.

Turning to `Nc1nc2ccc(Oc3ccccc3)cc2cc1C(CCC(=O)N(CCO)C1CCCCC1)C1CCCCC1` (stereo not drawn) [compound 42], in assay [2], the inhibition at 1 µM is 58% and the IC50 came to 810 nM.

As to `Nc1nc2ccc(Oc3ccccc3)cc2cc1C(CCC(=O)N(Cc1c[nH]cn1)C1CCCCC1)C1CCOCC1` (stereo not drawn) [compound 53], in assay [2], the inhibition at 1 µM turned out to be 90% and the IC50 came to 460 nM.

With `CC(C)(C)OC[C@@H](NC(=O)CC[C@H](c1cc2cc(Oc3ccccc3)ccc2nc1N)C1CCCCC1)C(=O)N1CCOCC1` [compound 45], in assay [2], the inhibition at 1 µM amounted to 46% and the IC50 is 1100 nM.

Turning to `C=CCCC(c1cc2cc(Oc3ccccc3)ccc2nc1N)C1CCCCC1` (stereo not drawn) [compound 509], in assay [2], the “% Inhibition 0.3 μM” value was found to be 11% and the “% Inhibition 1 μM” value is given as −3%.

On to `Cn1ccnc1CN(CCC(C)(C)C)C(=O)CCC(c1cc2cc(Oc3ccccc3)ccc2nc1N)C1CCOCC1` (stereo not drawn) [compound 56], for which the “% Inhibition 1 μM” value in assay [2] stood at 94%.

Take `CC(C)(C)CN(Cc1ncc[nH]1)C(=O)CCC(c1cc2cc(Oc3ccccc3)ccc2nc1N)C1CCOCC1` (stereo not drawn) [compound 58]: in assay [2], the “% Inhibition 1 μM” value is given as 88%.

Take `CC(C)(C)CN(Cc1c[nH]cn1)C(=O)CCC(c1cc2cc(Oc3ccccc3)ccc2nc1N)C1CCOCC1` (stereo not drawn) [compound 59]: in assay [2], the “% Inhibition 1 μM” value was 78%.

With `Nc1nc2ccc(Oc3ccccc3)cc2cc1C(CCC(=O)NC1CN2CCC1CC2)C1CCOCC1` (mixture of isomers) [compound 52], in assay [2], the “% Inhibition 1 μM” value turned out to be 6%.

Consider `Nc1nc2ccc(Oc3ccccc3)cc2cc1C(CCC(=O)N(CC1CC1)C1CCCCC1)C1CCOCC1` (stereo not drawn) [compound 67], for which, in assay [2], the inhibition at 1 µM amounted to 90% and the IC50 was 410 nM.

Take `CC(C)(C)CN(Cc1ccccn1)C(=O)CCC(c1cc2cc(Oc3ccccc3)ccc2nc1N)C1CCOCC1` (stereo not drawn) [compound 69]: in assay [2], the inhibition at 1 µM was 69% and the IC50 turned out to be 670 nM.

Consider `Nc1nc2ccc(Oc3ccccc3)cc2cc1C(CCC(=O)N(CCN1CCOCC1)C1CCCCC1)C1CCOCC1` (stereo not drawn) [compound 65], for which, in assay [2], the inhibition at 1 µM is 69% and the IC50 is 850 nM.

As for `CN(CCC(c1cc2cc(Oc3ccccc3)ccc2nc1N)C1CCCCC1)C1CCCCC1` (stereo not drawn) [compound 61], the “% Inhibition 1 μM” value in assay [2] is on record as 15%.

For the compound `Nc1nc2ccc(Oc3ccccc3)cc2cc1C(CCC(=O)NCC1CC1)C1CCOCC1` (stereo not drawn) [compound 36], in assay [2], the inhibition at 0.3 µM stood at 49%, the inhibition at 1 µM is 59% and the IC50 turned out to be 610 nM.

Take `CC(C)(C)OCCN(C(=O)CCC(c1cc2cc(Oc3ccccc3)ccc2nc1N)C1CCOCC1)C1CCCCC1` (stereo not drawn) [compound 66]: in assay [2], the inhibition at 1 µM was 86% and the IC50 was 470 nM.

On to `Cn1ccnc1CN(CCC(C)(C)C)C(=O)CCC(c1cc2cc(Oc3ccccc3)ccc2nc1N)C1CCCCC1` (stereo not drawn) [compound 71], for which, in assay [2] (1 µM), the “% Inhibition 1 μM” value is 73%.

Consider `Nc1nc2ccc(Oc3ccccc3)cc2cc1C(CCC(=O)NC12CC3CC(CC(C3)C1)C2)C1CCOCC1` (stereo not drawn) [compound 24], for which, in assay [1], the “% Inhibition (Example 10) @ 0.3 μM” value amounted to 56%, the “% Inhibition (Example 10) @ 1 μM” value is 103% and the “% Inhibition (Example 10) @ 3 μM” value is 132%. In addition, the Ki in assay [3] (read-out: Ki (μM) (Example 11)) stood at 0.066 µM.

For `Nc1nc2ccc(Oc3ccccc3)cc2cc1C(CCC(=O)N(CCN1CCCC1)C1CCCCC1)C1CCCCC1` (stereo not drawn) [compound 37], in assay [2], the inhibition at 0.3 µM came out at 27%, the inhibition at 1 µM came to 81% and the IC50 was 580 nM.

On to `CN(CC1CCCCC1)C(=O)CCC(c1cc2cc(Oc3ccccc3)ccc2nc1N)C1CCCCC1` (stereo not drawn) [compound 40], for which, in assay [2], the “% Inhibition 0.3 μM” value turned out to be 13%, the “% Inhibition 1 μM” value is on record as 54% and the IC50 was determined as 650 nM.
